Laboratory results published in patent publication US6960597B2, “Aza-bridged-bicyclic amino acid derivatives as α4 integrin antagonists” (Orth-McNeil Pharmaceutical, Inc., priority 2000, dated 2005).
Where two headings read alike, the source gives them in different places.

Tests used:
α4β1 integrin receptor = biological target: T1, α4β1 integrin receptor (Homo sapiens, UniProt P05556+P13612); assay: Ramos Cell Adhesion Assay (α4β1 Mediated Adhesion/VCAM-1); assay type: cell-based
T1 construct: Ramos Cell Adhesion Assay (α4β1 Mediated Adhesion/VCAM-1); endogenous in cells; host or cells: Ramos cells
Outline: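 Plates coated overnight at 4° C with recombinant hVCAM-1 (4.0 μg/mL, pH 9.0), then blocked with PBS/1% BSA. Ramos cells labelled with 5 μM Calcein AM adhered 1 h at room temperature with compound; after washing, cells were lysed in SDS and fluorescence read at 485/530 nm.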

human α4β7 = biological target: T2, human α4β7 (Homo sapiens, UniProt P13612+P26010); assay: α4β7-K562 Cell Adhesion Assay (α4β7 Mediated Adhesion/VCAM-1); assay type: cell-based
T2 construct: expressed in transfected cells
T2 sequence (P13612 34-1032): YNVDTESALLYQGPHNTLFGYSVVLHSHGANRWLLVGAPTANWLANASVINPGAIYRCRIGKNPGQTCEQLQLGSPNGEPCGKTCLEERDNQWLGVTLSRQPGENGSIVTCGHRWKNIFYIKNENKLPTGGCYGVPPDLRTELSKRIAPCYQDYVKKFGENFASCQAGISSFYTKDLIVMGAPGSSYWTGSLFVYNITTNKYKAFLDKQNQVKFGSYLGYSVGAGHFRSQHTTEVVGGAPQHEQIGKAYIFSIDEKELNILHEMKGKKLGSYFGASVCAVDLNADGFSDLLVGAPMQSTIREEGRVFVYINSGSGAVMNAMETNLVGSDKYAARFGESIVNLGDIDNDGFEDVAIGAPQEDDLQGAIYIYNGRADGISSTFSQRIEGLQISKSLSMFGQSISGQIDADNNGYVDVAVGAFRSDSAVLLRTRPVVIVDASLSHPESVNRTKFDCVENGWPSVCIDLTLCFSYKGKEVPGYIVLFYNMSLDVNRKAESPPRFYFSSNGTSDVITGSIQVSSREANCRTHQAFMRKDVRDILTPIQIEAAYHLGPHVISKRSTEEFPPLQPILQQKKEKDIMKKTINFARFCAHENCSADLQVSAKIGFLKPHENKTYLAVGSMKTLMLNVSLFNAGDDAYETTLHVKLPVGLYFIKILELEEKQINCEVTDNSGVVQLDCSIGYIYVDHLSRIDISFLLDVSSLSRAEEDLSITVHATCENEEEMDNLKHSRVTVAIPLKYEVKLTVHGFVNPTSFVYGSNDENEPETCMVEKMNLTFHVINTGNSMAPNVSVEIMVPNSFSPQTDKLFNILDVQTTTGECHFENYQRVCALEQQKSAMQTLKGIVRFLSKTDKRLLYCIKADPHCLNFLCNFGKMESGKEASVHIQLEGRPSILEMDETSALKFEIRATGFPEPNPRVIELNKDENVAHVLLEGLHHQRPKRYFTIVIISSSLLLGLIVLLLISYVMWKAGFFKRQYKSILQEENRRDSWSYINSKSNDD
T2 sequence (P26010 20-798): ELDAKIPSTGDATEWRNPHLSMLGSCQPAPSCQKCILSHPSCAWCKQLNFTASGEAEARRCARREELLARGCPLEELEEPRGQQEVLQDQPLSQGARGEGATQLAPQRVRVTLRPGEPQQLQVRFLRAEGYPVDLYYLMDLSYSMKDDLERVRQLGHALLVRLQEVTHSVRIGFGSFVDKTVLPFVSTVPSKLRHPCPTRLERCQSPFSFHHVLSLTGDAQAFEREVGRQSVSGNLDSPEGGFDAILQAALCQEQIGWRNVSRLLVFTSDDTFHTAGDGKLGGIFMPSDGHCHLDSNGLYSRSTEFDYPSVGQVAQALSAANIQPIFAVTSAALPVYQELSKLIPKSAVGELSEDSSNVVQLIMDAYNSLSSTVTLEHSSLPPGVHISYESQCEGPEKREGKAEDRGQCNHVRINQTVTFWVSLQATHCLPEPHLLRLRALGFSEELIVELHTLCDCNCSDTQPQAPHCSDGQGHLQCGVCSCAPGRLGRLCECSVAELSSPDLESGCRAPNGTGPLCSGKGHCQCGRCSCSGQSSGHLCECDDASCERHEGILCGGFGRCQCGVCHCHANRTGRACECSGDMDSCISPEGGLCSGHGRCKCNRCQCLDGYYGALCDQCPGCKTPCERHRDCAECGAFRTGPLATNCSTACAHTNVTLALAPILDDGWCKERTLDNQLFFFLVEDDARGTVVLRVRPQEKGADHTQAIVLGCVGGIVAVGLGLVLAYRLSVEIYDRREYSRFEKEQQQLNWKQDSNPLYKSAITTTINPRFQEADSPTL
Outline: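 K562 cells stably expressing human α4β7, labelled with 5 μM Calcein AM, adhered for 1 h at room temperature to plates coated with recombinant hVCAM-1 (4.0 μg/mL) in the presence of compound. After washing, cells were lysed in Tris/SDS. Bound cells were read by fluorescence at 485/530 nm.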

α4β1 = α4β1 (Homo sapiens, UniProt P05556+P13612); settings: cited from earlier work
[1] = test system: oxazolone-induced contact hypersensitivity; settings: mouse; 6 mg/kg, sc; cited from earlier work
[2] = test system: heterotopic heart allograft; settings: hyperlipidemic rabbit; cited from earlier work
[3] = Table III, read-out: Inhibition of Binding of Ramos Cells to Immobilized VCAM-1 IC50
[4] = Table IV, μM, read-out: Inhibition of Binding of K562 Cells to Immobilized VCAM-1 IC50
[5] = Table IV, read-out: Inhibition of Binding of K562 Cells to Immobilized VCAM-1 IC50
[6] = Table III, μM, read-out: Inhibition of Binding of Ramos Cells to Immobilized VCAM-1 IC50

T1 sequence (P05556 21-798, one chain of several): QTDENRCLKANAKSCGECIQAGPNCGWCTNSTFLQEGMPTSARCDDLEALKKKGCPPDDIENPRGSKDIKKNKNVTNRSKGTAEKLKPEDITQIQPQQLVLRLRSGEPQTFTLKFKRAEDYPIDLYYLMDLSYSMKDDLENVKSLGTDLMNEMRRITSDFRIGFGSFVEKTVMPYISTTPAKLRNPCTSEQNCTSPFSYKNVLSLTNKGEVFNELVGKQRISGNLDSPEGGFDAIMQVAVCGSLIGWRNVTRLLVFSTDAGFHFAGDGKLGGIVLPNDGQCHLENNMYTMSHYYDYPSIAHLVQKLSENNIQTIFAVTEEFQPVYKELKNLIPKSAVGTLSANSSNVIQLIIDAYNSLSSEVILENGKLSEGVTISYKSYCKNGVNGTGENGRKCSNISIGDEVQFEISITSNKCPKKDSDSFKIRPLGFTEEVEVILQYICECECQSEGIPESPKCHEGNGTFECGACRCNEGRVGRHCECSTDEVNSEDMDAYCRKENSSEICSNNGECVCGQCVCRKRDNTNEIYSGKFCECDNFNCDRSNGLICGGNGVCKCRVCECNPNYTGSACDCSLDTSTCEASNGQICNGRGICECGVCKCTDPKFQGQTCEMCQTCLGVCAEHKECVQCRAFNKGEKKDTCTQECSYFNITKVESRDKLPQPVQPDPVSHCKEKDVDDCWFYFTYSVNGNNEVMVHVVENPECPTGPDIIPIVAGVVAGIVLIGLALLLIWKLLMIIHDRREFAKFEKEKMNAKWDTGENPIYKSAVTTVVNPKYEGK
α4β1, sequence (P05556 21-798, one chain of several): as above

CC(C)(C)c1ccc(C[C@H](NC(=O)C2C3CCC(CC3)N2S(=O)(=O)c2ccccc2)C(=O)O)cc1 (stereo partly drawn) [Cpd 58, 4-(1,1-dimethylethyl)-N-[[2-(phenylsulfonyl)-2-azabicyclo[2.2.2]oct-3-yl]carbonyl]-L-phenylalanine]
IC50 (α4β1 integrin receptor; [3]): 0.523 µM | IC50 (human α4β7; [4]): > 10 µM

O=C(Nc1ccc(C[C@H](NC(=O)C2C3CCC(CC3)N2S(=O)(=O)c2ccccc2)C(=O)O)cc1)C1CCNCC1 (stereo partly drawn) [Cpd 59, 4-[(4-piperidinylcarbonyl)amino]-N-[[2-(phenylsulfonyl)-2-azabicyclo[2.2.2]oct-3-yl]carbonyl]-L-phenylalanine]
IC50 (α4β1 integrin receptor; [3]): 0.237 µM | IC50 (human α4β7; [5]): 1.5 µM

O=C(O)C(Cc1ccc(OCc2c(Cl)cccc2Cl)c(F)c1)NC(=O)C1C2CCC(CC2)N1S(=O)(=O)c1ccccc1 (stereo not drawn) [Cpd 62]
IC50 (α4β1 integrin receptor; [6]): > 5 µM | IC50 (human α4β7; [4]): > 10 µM

O=C(O)[C@H](Cc1ccc(OCc2c(Cl)cccc2Cl)c(F)c1)NC(=O)[C@@H]1C2CCC(CC2)N1S(=O)(=O)c1ccccc1 [Cpd 62a, O-[(2,6-dichlorophenyl)methyl]-3-fluoro-N-[[(3S)-2-(phenylsulfonyl)-2-azabicyclo[2.2.2]oct-3-yl]carbonyl]-L-tyrosine]
IC50 (α4β1 integrin receptor; [6]): > 5 µM | IC50 (human α4β7; [4]): > 10 µM

CN(C)C(=O)Oc1ccc(C[C@H](NC(=O)C2C3CCC(CC3)N2S(=O)(=O)c2cccs2)C(=O)O)cc1 (stereo partly drawn) [Cpd 63, O-[(dimethylamino)carbonyl]-N-[[2-(2-thienylsulfonyl)-2-azabicyclo[2.2.2]oct-3-yl]carbonyl]-L-tyrosine]
IC50 (α4β1 integrin receptor; Inhibition of Binding of Ramos Cells to Immobilized VCAM-1 IC50, Table III): 0.112 µM | IC50 (human α4β7): 0.286 µM

CC(C)(C)C(=O)Nc1ccc(C[C@H](NC(=O)[C@@H]2C3CCC(CC3)N2S(=O)(=O)c2ccccc2)C(=O)O)cc1 [Cpd 64, 4-[(2,2-dimethyl-1-oxopropyl)amino]-N-[[(3S)-2-(phenylsulfonyl)-2-azabicyclo[2.2.2]oct-3-yl]carbonyl]-L-phenylalanine]
IC50 (α4β1 integrin receptor; [3]): 0.393 µM | IC50 (human α4β7; [4]): > 10 µM

CCOc1ccc2ccccc2c1C(=O)Nc1ccc(C[C@H](NC(=O)[C@@H]2C3CCC(CC3)N2S(=O)(=O)c2ccccc2)C(=O)O)cc1 [Cpd 65, 4-[[(2-ethoxy-1-naphthalenyl)carbonyl]amino]-N-[[(3S)-2-(phenylsulfonyl)-2-azabicyclo[2.2.2]oct-3-yl]carbonyl]-L-phenylalanine]
IC50 (α4β1 integrin receptor; [3]): 0.193 µM | IC50 (human α4β7; [5]): 0.394 µM

O=C(Nc1ccc(C[C@H](NC(=O)C2C3CCC(CC3)N2S(=O)(=O)c2cccs2)C(=O)O)cc1)c1c(Cl)cccc1Cl (stereo partly drawn) [Cpd 66, 4-[(2,6-dichlorobenzoyl)amino]-N-[[2-(2-thienylsulfonyl)-2-azabicyclo[2.2.2]oct-3-yl]carbonyl]-L-phenylalanine]
IC50 (α4β1 integrin receptor; [3]): 0.017 µM | IC50 (human α4β7; [5]): 0.186 µM

O=C(Nc1ccc(C[C@H](NC(=O)[C@@H]2C3CCC(CC3)N2S(=O)(=O)c2ccccc2)C(=O)O)cc1)C1CC1 [Cpd 67, 4-[(cyclopropylcarbonyl)amino]-N-[[(3S)-2-(phenylsulfonyl)-2-azabicyclo[2.2.2]oct-3-yl]carbonyl]-L-phenylalanine]
IC50 (α4β1 integrin receptor; [3]): 0.628 µM | IC50 (human α4β7; [5]): 0.683 µM

CC1(C)C(C(=O)Nc2ccc(C[C@H](NC(=O)[C@@H]3C4CCC(CC4)N3S(=O)(=O)c3ccccc3)C(=O)O)cc2)C1(C)C [Cpd 68, 4-[[(2,2,3,3-tetramethylcyclopropyl)carbonyl]amino]-N-[[(3S)-2-(phenylsulfonyl)-2-azabicyclo[2.2.2]oct-3-yl]carbonyl]-L-phenylalanine]
IC50 (α4β1 integrin receptor; [3]): 0.873 µM | IC50 (human α4β7; [4]): > 50 µM

CC(C)C(=O)Nc1ccc(C[C@H](NC(=O)[C@@H]2C3CCC(CC3)N2S(=O)(=O)c2ccccc2)C(=O)O)cc1 [Cpd 69, 4-[(2-methyl-1-oxopropyl)amino]-N-[[(3S)-2-(phenylsulfonyl)-2-azabicyclo[2.2.2]oct-3-yl]carbonyl]-L-phenylalanine]
IC50 (α4β1 integrin receptor; [3]): 0.455 µM | IC50 (human α4β7; [5]): 1.67 µM

O=C(O)[C@H](Cc1ccc(NC(=O)[C@@H]2C3CCC(CC3)N2S(=O)(=O)c2ccccc2)cc1)NC(=O)[C@@H]1C2CCC(CC2)N1S(=O)(=O)c1ccccc1 [Cpd 70, 4-[[[(3S)-2-(phenylsulfonyl)-2-azabicyclo[2.2.2]oct-3-yl]carbonyl]amino]-N-[[(3S)-2-(phenylsulfonyl)-2-azabicyclo[2.2.2]oct-3-yl]carbonyl]-L-phenylalanine]
IC50 (α4β1 integrin receptor; [3]): 0.37 µM | IC50 (human α4β7; [5]): 2.03 µM

O=C(Nc1ccc(C[C@H](NC(=O)[C@@H]2C3CCC(CC3)N2S(=O)(=O)c2cccs2)C(=O)O)cc1)c1c(Cl)cncc1Cl [Cpd 71a, 4-[[(3,5-dichloro-4-pyridinyl)carbonyl]amino]-N-[[(3S)-2-(2-thienylsulfonyl)-2-azabicyclo[2.2.2]oct-3-yl]carbonyl]-L-phenylalanine]
IC50 (α4β1 integrin receptor; Table I, racemic mixtures and resolved (S,S) and (R,S) diastereomers, read-out: Antagonist IC50 Activity α4β1): 0.006 µM | IC50 (α4β1 integrin receptor; [3]): 0.36 µM | IC50 (human α4β7; Table I, racemic mixtures and resolved (S,S) and (R,S) diastereomers, read-out: Antagonist IC50 Activity α4β7): 0.033 µM

Phenylacetyl-Leu-Asp-Phe-D-Pro-NH2
IC50 (α4β1): 2 µM | efficacy in oxazolone-induced contact hypersensitivity [1]: efficacy similar to the α4 antibody PS/2 | efficacy in heterotopic heart allograft model [2]: effective
